Experiment [1] relates to Methicillin-resistant Staphylococcus aureus MRSA (ATCC BAA-1556).
The test system of experiment [2] is Escherichia coli (ATCC 25922).
The test system of experiment [3] is Pseudomonas aeruginosa (ATCC 27883).

In brackets after ≈: the same amount, converted by molar mass. Like-named read-outs stand apart in the source and are kept apart here. Non-standard residues stand in square brackets, D forms with d. Residues, ends and D or L forms follow the SMILES beside them. Bip = N[C@@H](Cc1ccc(-c2ccccc2)cc1)C(=O)O; Dip = N[C@H](C(=O)O)C(c1ccccc1)c1ccccc1

Take `N=C(N)NCCC[C@@H]1NC(=O)[C@H](CCCNC(=N)N)NC(=O)[C@H](Cc2ccc(-c3ccccc3)cc2)NC(=O)[C@H](Cc2ccc(-c3ccccc3)cc2)NC(=O)[C@H](Cc2ccc(-c3ccccc3)cc2)NC(=O)[C@H](CCCNC(=N)N)NC1=O` [IFX-001, c[Arg-Arg-Arg-Bip-Bip-Bip]] (cyclo([Bip][Bip][Bip]RRR)): the “MIC S. aureus ATCC 29213” value in the experiment with S. aureus ATCC 29213 (ATCC 29213) is 50 µg/mL (≈ 43.9 µM). Moreover, in experiment [1] (ATCC BAA-1556), the “MIC MRSA ATCC BAA-1556” value amounted to 50 µg/mL (≈ 43.9 µM). Also, the “MIC E. coli ATCC 25922” value in experiment [2] (ATCC 25922) was over 100 µg/mL. The “MIC P. aeruginosa ATCC 27883” value in experiment [3] (ATCC 27883) was over 100 µg/mL.

Take `N=C(N)NCCC[C@H](NC(=O)[C@H](CCCNC(=N)N)NC(=O)[C@@H](N)CCCNC(=N)N)C(=O)N[C@@H](Cc1ccc(-c2ccccc2)cc1)C(=O)N[C@@H](Cc1ccc(-c2ccccc2)cc1)C(=O)N[C@@H](Cc1ccc(-c2ccccc2)cc1)C(=O)O` [IFX-001-1, NH2-Arg-Arg-Arg-Bip-Bip-Bip-OH] (H-RRR[Bip][Bip][Bip]-OH): the “MIC S. aureus ATCC 29213” value against S. aureus ATCC 29213 (ATCC 29213) is 50 µg/mL (≈ 43.2 µM). The “MIC MRSA ATCC BAA-1556” value in experiment [1] (ATCC BAA-1556) came out at 50 µg/mL (≈ 43.2 µM). Also, the “MIC E. coli ATCC 25922” value in experiment [2] (ATCC 25922) is over 100 µg/mL. Further, the “MIC P. aeruginosa ATCC 27883” value in experiment [3] (ATCC 27883) was over 100 µg/mL.

Regarding `N=C(N)NCCC[C@@H]1NC(=O)[C@H](CCCNC(=N)N)NC(=O)[C@H](CCCNC(=N)N)NC(=O)[C@H](Cc2ccc(-c3ccccc3)cc2)NC(=O)[C@H](Cc2ccc(-c3ccccc3)cc2)NC(=O)[C@H](Cc2ccc(-c3ccccc3)cc2)NC(=O)[C@H](Cc2ccc(-c3ccccc3)cc2)NC(=O)[C@H](CCCNC(=N)N)NC1=O` [IFX-004, c[Arg-Arg-Arg-Arg-Bip-Bip-Bip-Bip]] (cyclo([Bip][Bip][Bip][Bip]RRRR)), in the experiment on S. aureus ATCC 29213 (ATCC 29213), the “MIC S. aureus ATCC 29213” value was 50 µg/mL (≈ 32.9 µM). Moreover, the “MIC MRSA ATCC BAA-1556” value in experiment [1] (ATCC BAA-1556) is over 100 µg/mL. Also, the “MIC E. coli ATCC 25922” value in experiment [2] (ATCC 25922) was over 100 µg/mL. Further, the “MIC P. aeruginosa ATCC 27883” value in experiment [3] (ATCC 27883) was over 100 µg/mL.

Turning to `N=C(N)NCCC[C@H](NC(=O)[C@H](CCCNC(=N)N)NC(=O)[C@H](CCCNC(=N)N)NC(=O)[C@@H](N)CCCNC(=N)N)C(=O)N[C@@H](Cc1ccc(-c2ccccc2)cc1)C(=O)N[C@@H](Cc1ccc(-c2ccccc2)cc1)C(=O)N[C@@H](Cc1ccc(-c2ccccc2)cc1)C(=O)N[C@@H](Cc1ccc(-c2ccccc2)cc1)C(=O)O` [IFX-004-1, NH2-Arg-Arg-Arg-Arg-Bip-Bip-Bip-Bip-OH] (H-RRRR[Bip][Bip][Bip][Bip]-OH), in the experiment with S. aureus ATCC 29213 (ATCC 29213), the “MIC S. aureus ATCC 29213” value is over 100 µg/mL. Moreover, in experiment [1] (ATCC BAA-1556), the “MIC MRSA ATCC BAA-1556” value was over 100 µg/mL. Moreover, the “MIC E. coli ATCC 25922” value in experiment [2] (ATCC 25922) is over 100 µg/mL. Also, the “MIC P. aeruginosa ATCC 27883” value in experiment [3] (ATCC 27883) is over 100 µg/mL.

Take `N=C(N)NCCC[C@@H]1NC(=O)[C@H](CCCNC(=N)N)NC(=O)[C@H](CCCNC(=N)N)NC(=O)[C@H](Cc2ccc(-c3ccccc3)cc2)NC(=O)[C@H](Cc2ccc(-c3ccccc3)cc2)NC(=O)[C@H](Cc2ccc(-c3ccccc3)cc2)NC(=O)[C@H](CCCNC(=N)N)NC1=O` [IFX-007, c[Arg-Arg-Arg-Arg-Bip-Bip-Bip]] (cyclo([Bip][Bip][Bip]RRRR)): the “MIC S. aureus ATCC 29213” value in the experiment with S. aureus ATCC 29213 (ATCC 29213) was 3.1 µg/mL (≈ 2.39 µM). Also, the “MIC MRSA ATCC BAA-1556” value in experiment [1] (ATCC BAA-1556) turned out to be 6.2 µg/mL (≈ 4.79 µM). Moreover, in experiment [2] (ATCC 25922), the “MIC E. coli ATCC 25922” value is over 100 µg/mL. Besides, the “MIC P. aeruginosa ATCC 27883” value in experiment [3] (ATCC 27883) was determined as 25 µg/mL (≈ 19.3 µM).

For the compound `N=C(N)NCCC[C@H](NC(=O)[C@H](CCCNC(=N)N)NC(=O)[C@H](CCCNC(=N)N)NC(=O)[C@@H](N)CCCNC(=N)N)C(=O)N[C@@H](Cc1ccc(-c2ccccc2)cc1)C(=O)N[C@@H](Cc1ccc(-c2ccccc2)cc1)C(=O)N[C@@H](Cc1ccc(-c2ccccc2)cc1)C(=O)O` [IFX-007-1, NH2-Arg-Arg-Arg-Arg-Bip-Bip-Bip-OH] (H-RRRR[Bip][Bip][Bip]-OH), the “MIC S. aureus ATCC 29213” value in the experiment with S. aureus ATCC 29213 (ATCC 29213) is 6.2 µg/mL (≈ 4.72 µM). For the same compound, the “MIC MRSA ATCC BAA-1556” value in experiment [1] (ATCC BAA-1556) is 6.2 µg/mL (≈ 4.72 µM). For the same compound, in experiment [2] (ATCC 25922), the “MIC E. coli ATCC 25922” value was over 100 µg/mL. Also, the “MIC P. aeruginosa ATCC 27883” value in experiment [3] (ATCC 27883) worked out at 25 µg/mL (≈ 19 µM).

As for `N=C(N)NCCC[C@H](NC(=O)[C@H](CCCNC(=N)N)NC(=O)[C@H](CCCNC(=N)N)NC(=O)[C@@H](N)CCCNC(=N)N)C(=O)N[C@@H](CCCNC(=N)N)C(=O)N[C@H](C(=O)N[C@H](C(=O)N[C@H](C(=O)O)C(c1ccccc1)c1ccccc1)C(c1ccccc1)c1ccccc1)C(c1ccccc1)c1ccccc1` [IFX-012-1, NH2-Arg-Arg-Arg-Arg-Arg-Dip-Dip-Dip-OH] (H-RRRRR[Dip][Dip][Dip]-OH), the “MIC S. aureus ATCC 29213” value in the experiment with S. aureus ATCC 29213 (ATCC 29213) is 3.1 µg/mL (≈ 2.11 µM). Moreover, the “MIC MRSA ATCC BAA-1556” value in experiment [1] (ATCC BAA-1556) turned out to be 3.1 µg/mL (≈ 2.11 µM). The “MIC E. coli ATCC 25922” value in experiment [2] (ATCC 25922) turned out to be 25 µg/mL (≈ 17 µM). Also, the “MIC P. aeruginosa ATCC 27883” value in experiment [3] (ATCC 27883) was 50 µg/mL (≈ 34 µM).

`N=C(N)NCCC[C@@H]1NC(=O)CNC(=O)CNC(=O)[C@H](Cc2c[nH]c3ccccc23)NC(=O)[C@H](Cc2c[nH]c3ccccc23)NC(=O)[C@H](Cc2c[nH]c3ccccc23)NC(=O)[C@H](Cc2c[nH]c3ccccc23)NC(=O)CNC(=O)CNC(=O)[C@H](CCCNC(=N)N)NC(=O)[C@H](CCCNC(=N)N)NC(=O)[C@H](CCCNC(=N)N)NC1=O` [IFX-044] (cyclo(GGRRRRGGWWWW)): the “MIC S. aureus ATCC 29213” value with S. aureus ATCC 29213 (ATCC 29213) was 25 µg/mL (≈ 15.6 µM). The “MIC MRSA ATCC BAA-1556” value in experiment [1] (ATCC BAA-1556) amounted to 25 µg/mL (≈ 15.6 µM). In experiment [2] (ATCC 25922), the “MIC E. coli ATCC 25922” value amounted to 50 µg/mL (≈ 31.3 µM). Besides, the “MIC P. aeruginosa ATCC 27883” value in experiment [3] (ATCC 27883) was 50 µg/mL (≈ 31.3 µM).

In the case of `N=C(N)NCCC[C@@H]1NC(=O)[C@H](CCCNC(=N)N)NC(=O)[C@H](Cc2c[nH]c3ccccc23)NC(=O)[C@H](Cc2c[nH]c3ccccc23)NC(=O)[C@H](Cc2c[nH]c3ccccc23)NC(=O)[C@H](Cc2c[nH]c3ccccc23)NC(=O)[C@H](Cc2c[nH]c3ccccc23)NC(=O)[C@H](Cc2c[nH]c3ccccc23)NC(=O)[C@H](Cc2c[nH]c3ccccc23)NC(=O)[C@H](CCCNC(=N)N)NC1=O` [IFX-306] (cyclo(RRRWWWWWWW)), the “MIC P. aeruginosa ATCC 27883” value in experiment [3] (Table 19) came out at 256 µg/mL (≈ 144 µM).

Turning to `N=C(N)NCCC[C@H]1NC(=O)[C@H](Cc2c[nH]c3ccccc23)NC(=O)[C@H](Cc2c[nH]c3ccccc23)NC(=O)[C@H](Cc2c[nH]c3ccccc23)NC(=O)[C@H](Cc2c[nH]c3ccccc23)NC(=O)[C@@H](CCCNC(=N)N)NC(=O)[C@@H](CCCNC(=N)N)NC(=O)[C@@H](CCCNC(=N)N)NC1=O` [IFX-309] (cyclo([dR][dR][dR][dR]WWWW)), the “MIC E. coli ATCC 25922” value in experiment [2] (ATCC 25922) was found to be 16 µg/mL (≈ 11.7 µM).

Regarding “c[Arg-Arg-Arg-Arg-1meW-1meW-1meW-1meW] [IFX-041]”, in the experiment with S. aureus ATCC 29213, the “MIC S. aureus ATCC 29213” value is 3.1 µg/mL. The “MIC MRSA ATCC BAA-1556” value in experiment [1] is 6.2 µg/mL. In addition, the “MIC E. coli ATCC 25922” value in experiment [2] came to 25 µg/mL. In experiment [3], the “MIC P. aeruginosa ATCC 27883” value amounted to 25 µg/mL.

For “c[Arg-Arg-Arg-Arg-5brW-5brW-5brW-5brW] [IFX-039]”, the “MIC S. aureus ATCC 29213” value against S. aureus ATCC 29213 was 25 µg/mL. In addition, in experiment [1], the “MIC MRSA ATCC BAA-1556” value is 25 µg/mL. For the same compound, in experiment [2], the “MIC E. coli ATCC 25922” value was over 100 µg/mL. Also, in experiment [3], the “MIC P. aeruginosa ATCC 27883” value was over 100 µg/mL.

Consider “c[Arg-Arg-Arg-Arg-5fW-5fW-5fW-5fW] [IFX-038]”, for which the “MIC S. aureus ATCC 29213” value in the experiment on S. aureus ATCC 29213 came out at 12.5 µg/mL. In addition, in experiment [1], the “MIC MRSA ATCC BAA-1556” value came out at 25 µg/mL. Besides, in experiment [2], the “MIC E. coli ATCC 25922” value was 50 µg/mL. Also, the “MIC P. aeruginosa ATCC 27883” value in experiment [3] worked out at 100 µg/mL.

For “c[Arg-Arg-Arg-Arg-7metW-7metW-7metW-7metW] [IFX-042]”, in the experiment with S. aureus ATCC 29213, the “MIC S. aureus ATCC 29213” value is 6.1 µg/mL. Also, in experiment [1], the “MIC MRSA ATCC BAA-1556” value turned out to be 6.2 µg/mL. Moreover, the “MIC E. coli ATCC 25922” value in experiment [2] came to 25 µg/mL. Moreover, the “MIC P. aeruginosa ATCC 27883” value in experiment [3] stood at 50 µg/mL.

Consider “c[Arg-arg-Arg-arg-PEG4-Trp-naI-naI] [IFX-051]”, for which, in the experiment on S. aureus ATCC 29213, the “MIC S. aureus ATCC 29213” value turned out to be 32 µg/mL. In addition, the “MIC MRSA ATCC BAA-1556” value in experiment [1] is 32 µg/mL. In addition, the “MIC E. coli ATCC 25922” value in experiment [2] is 128 µg/mL. The “MIC P. aeruginosa ATCC 27883” value in experiment [3] is 128 µg/mL.

Values taken from patent US20220289794A1, “SYNTHETIC ANTIMICROBIAL PEPTIDES” (priority 2019, published 2022).
